Paper PMC4207543 (Journal of Medicinal Chemistry, 2014)
Converted amounts (≈) assume the structure as drawn. Like-named read-outs stand apart in the source and are kept apart here. Each block holds one molecule with its values, some of them ahead of it.

Key:
[1] = system: S. aureus strain UAMS-1; assay: microbe, parasite or virus in culture; assay type: cell-based, Staphylococcus aureus; conditions: for MIC: Staphylococcus aureus, UAMS1, 16 h, read-out: S. aureus MIC, strain UAMS-1, planktonic cells, MHB, 37 °C, 16 h; for fold reduction in activity compared to 4g: S. aureus MIC
[2] = target: S. aureus DNA gyrase (Staphylococcus aureus, UniProt P0A0K8+P20831); assay: S. aureus DNA gyrase supercoiling assay; assay type: biochemical; conditions: tested at 100 μM, gel (Figure 4B)
[3] = system: methicillin-resistant (MRSA), vancomycin-intermediate (VISA), vancomycin-resistant (VRSA) S. aureus, fluoroquinolone resistant strains; assay type: cell-based, Staphylococcus aureus; conditions: toward MRSA, VRSA S. aureus and fluoroquinolone resistant strains
[4] = target: S. aureus topoisomerase IV (Staphylococcus aureus, UniProt P0C1S7+P0C1U9); assay: S. aureus topoisomerase IV decatenation assay; assay type: biochemical
[5] = system: S. aureus RNase J2; assay: S. aureus RNase J2 activity; assay type: biochemical; conditions: data not shown
[6] = target: T1, S. aureus RnpA (Staphylococcus aureus, UniProt P0A0H5); assay: S. aureus RnpA activity; assay type: biochemical; conditions: data not shown
T1 sequence (P0A0H5 1-117): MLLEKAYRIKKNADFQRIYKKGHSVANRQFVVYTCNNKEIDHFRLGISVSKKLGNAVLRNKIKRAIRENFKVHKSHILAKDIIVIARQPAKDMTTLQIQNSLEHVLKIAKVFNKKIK

[7] = strain UAMS-1, compared to the hit 1a

SMILES: CC(C)(C)c1ccc([C@H](O)CCCN2CCC(C(O)(c3ccccc3)c3ccccc3)CC2)cc1 [2i, (R)-1-(4-(tert-Butyl)phenyl)-4-(4-(hydroxydiphenylmethyl)piperidin-1-yl)butan-1-ol]
S. aureus antimicrobial activity (in words) [1, 7]: no change in activity

SMILES: OC(c1ccccc1)(c1ccccc1)C1CCN(CCCOc2ccc(-c3ccccc3)cc2)CC1 [compound 6, (1-(3-([1,1′-Biphenyl]-4-yloxy)propyl)piperidin-4-yl)diphenylmethanol]
inhibition of S. aureus DNA gyrase supercoiling activity in comparison to terfenadine [2]: improved inhibition | MIC [3]: approximately 2 μg/mL

SMILES: CC(C)(C)c1ccc(C(N)CCCN2CCC(C(O)(c3ccccc3)c3ccccc3)CC2)cc1 (stereo not drawn) [2g, (1-(4-Amino-4-(4-(tert-butyl)phenyl)butyl)piperidin-4-yl)diphenylmethanol]
MIC [1]: 16 to 32 µg/mL (≈ 34 to 68 µM) | S. aureus antimicrobial activity (in words) [1, 7]: no change in activity

SMILES: OC(c1ccccc1)(c1ccccc1)C1CCN(Cc2ccc(-c3ccco3)cc2)CC1 [4ii, (1-(4-(Furan-2-yl)benzyl)piperidin-4-yl)diphenylmethanol]
fold reduction in activity compared to 4g [1]: 4– 8 fold

SMILES: COC(=O)c1ccc(C(O)CCCN2CCC(C(O)(c3ccccc3)c3ccccc3)CC2)cc1 (stereo not drawn) [1i, Methyl 4-(1-Hydroxy-4-(4-(hydroxydiphenylmethyl)piperidin-1-yl)butyl)benzoate]
MIC [1]: > 256 µg/mL | S. aureus antimicrobial activity (in words) [1, 7]: loss of antimicrobial activity | IC50 [4]: > 333 µM

SMILES: OC(c1ccccc1)(c1ccccc1)C1CCN(CCc2ccc(Br)cc2)CC1 [3e, (1-(4-Bromophenethyl)piperidin-4-yl)diphenylmethanol]
MIC [1]: 16 to 32 µg/mL (≈ 35.5 to 71 µM)

effect on activity of S. aureus RNase J2 [5]: did not appear to affect the activity | topoisomerase IV inhibitory activity (in words) ([4]; dose–response gel (Figure 5A)): moderate | effect on activity of S. aureus RnpA [6]: did not appear to affect the activity
SMILES: CC(C)(C)c1ccc(C(O)CCCN2CCC(C(O)(c3ccccc3)c3ccccc3)CC2)cc1 (stereo not drawn) [1a, 1-(4-(tert-Butyl)phenyl)-4-(4-(hydroxydiphenylmethyl)piperidin-1-yl)butan-1-ol]

inhibition of S. aureus DNA gyrase supercoiling activity in comparison to terfenadine [2]: improved inhibition
SMILES: O=C(O)c1cn(C2CC2)c2cc(N3CCNCC3)c(F)cc2c1=O [ciprofloxacin, reference compound]

SMILES: O=C(O)c1ccc(C(O)CCCN2CCC(C(O)(c3ccccc3)c3ccccc3)CC2)cc1 (stereo not drawn) [1m, 4-(1-Hydroxy-4-(4-(hydroxydiphenylmethyl)piperidin-1-yl)butyl)benzoic Acid]
S. aureus antimicrobial activity (in words) [1, 7]: loss of antimicrobial activity

IC50 [4]: > 333 µM
SMILES: CC1(c2ccc(CCN3CCC(C(O)(c4ccccc4)c4ccccc4)CC3)cc2)COC1 [3o, (1-(4-(3-Methyloxetan-3-yl)phenethyl)piperidin-4-yl)diphenylmethanol]

SMILES: CC(C)(C)c1ccc([C@@H](O)CCCN2CCC(C(O)(c3ccccc3)c3ccccc3)CC2)cc1 [2h, (S)-1-(4-(tert-Butyl)phenyl)-4-(4-(hydroxydiphenylmethyl)piperidin-1-yl)butan-1-ol]
S. aureus antimicrobial activity (in words) [1, 7]: no change in activity

IC50 [4]: > 333 µM
SMILES: CN(C)c1ccc(CCN2CCC(C(O)(c3ccccc3)c3ccccc3)CC2)cc1 [3k, (1-(4-(Dimethylamino)phenethyl)piperidin-4-yl)diphenylmethanol]

IC50 [4]: > 333 µM
SMILES: CC(C)(C)c1ccc(CCN2CCC(C(O)(c3ccccc3)c3ccccc3)CC2)cn1 [3h, (1-(2-(6-(tert-Butyl)pyridin-3-yl)ethyl)piperidin-4-yl)diphenylmethanol]

SMILES: OC(c1ccccc1)(c1ccccc1)C1CCN(Cc2ccc(-c3ccoc3)cc2)CC1 [4hh, (1-(4-(Furan-3-yl)benzyl)piperidin-4-yl)diphenylmethanol]
fold reduction in activity compared to 4g [1]: 4– 8 fold

SMILES: OC(c1ccccc1)(c1ccccc1)C1CCN(Cc2ccc(-c3cccs3)cc2)CC1 [4gg, (1-(4-(Thiophen-2-yl)benzyl)piperidin-4-yl)diphenylmethanol]
fold reduction in activity compared to 4g [1]: 4– 8 fold

SMILES: COc1ccc(C(O)CCCN2CCC(C(O)(c3ccccc3)c3ccccc3)CC2)cc1 (stereo not drawn) [1h, 1-(4-Methoxyphenyl)-4-(4-(hydroxydiphenylmethyl)piperidin-1-yl)butan-1-ol]
S. aureus antimicrobial activity (in words) [1, 7]: loss of antimicrobial activity

SMILES: CC(C)(C)c1ccc(C(O)CCCN2CCC(C(c3ccccc3)c3ccccc3)CC2)cc1 (stereo not drawn) [5e, 4-(4-Benzhydrylpiperidin-1-yl)-1-(4-(tert-butyl)phenyl)butan-1-ol]
S. aureus antimicrobial activity (in words) [1, 7]: tolerated

IC50 [4]: > 333 µM
SMILES: OC(c1ccccc1)(c1ccccc1)C1CCN(CCc2ccc(F)cc2)CC1 [3c, (1-(4-Fluorophenethyl)piperidin-4-yl)diphenylmethanol]

SMILES: CC(C)(C(=O)O)c1ccc(C(O)CCCN2CCC(C(O)(c3ccccc3)c3ccccc3)CC2)cc1 (stereo not drawn) [1p, 2-(4-(1-Hydroxy-4-(4-(hydroxydiphenylmethyl)piperidin-1-yl)butyl)phenyl)-2-methyl propanoic Acid, reference compound]
S. aureus antimicrobial activity (in words) [1]: loss of antimicrobial activity

SMILES: OC(c1ccccc1)(c1ccccc1)C1CCN(CCc2ccc(Cl)cc2)CC1 [3d, (1-(4-Chlorophenethyl)piperidin-4-yl)diphenylmethanol]
MIC [1]: 16 to 32 µg/mL (≈ 39.4 to 78.8 µM)

SMILES: OC(c1ccccc1)(c1ccccc1)C1CCN(CCc2ccc(-c3cccnc3)cc2)CC1 [3n, (1-(4-(Pyridin-3-yl)phenethyl)piperidin-4-yl)diphenylmethanol]
MIC [1]: 16 to 32 µg/mL (≈ 35.7 to 71.3 µM)

IC50 [4]: > 333 µM
SMILES: CC(C)(C)c1ccc(C(O)CCCN2CCC(Cc3ccccc3)CC2)cc1 (stereo not drawn) [5b, 4-(4-Benzylpiperidin-1-yl)-1-(4-(tert-butyl)phenyl)butan-1-ol]

inhibition of S. aureus DNA gyrase supercoiling activity in comparison to terfenadine [2]: improved inhibition
SMILES: OC(c1ccccc1)(c1ccccc1)C1CCN(Cc2ccc(-c3ccccc3)cc2)CC1 [4g, (1-([1,1′-Biphenyl]-4-ylmethyl)piperidin-4-yl)diphenylmethanol]

SMILES: OC(c1ccccc1)(c1ccccc1)C1CCN(Cc2ccc(-c3ccsc3)cc2)CC1 [4ff]
fold reduction in activity compared to 4g [1]: 4– 8 fold

SMILES: COC(=O)C(C)(C)c1ccc(C(O)CCCN2CCC(C(O)(c3ccccc3)c3ccccc3)CC2)cc1 (stereo not drawn) [1o, Methyl 2-(4-(1-Hydroxy-4-(4-(hydroxydiphenylmethyl)piperidin-1-yl)butyl)phenyl)-2-methylpropanoate]
S. aureus antimicrobial activity (in words) [1, 7]: loss of antimicrobial activity

IC50 [4]: > 333 µM
SMILES: CC(C)(C)c1ccc(C(O)CCCN2CCC(C(O)c3ccccc3)CC2)cc1 (stereo not drawn) [5a, 1-(4-(tert-Butyl)phenyl)-4-(4-(hydroxy(phenyl)methyl)piperidin-1-yl)butan-1-ol]

IC50 [4]: > 333 µM
SMILES: COc1ccc(CCN2CCC(C(O)(c3ccccc3)c3ccccc3)CC2)cc1 [3g, (1-(4-Methoxyphenethyl)piperidin-4-yl)diphenylmethanol]
